Assay results published in patent US7754913B2, “Synthesis of isotopically labeled alpha-keto acids and esters” (Cambridge Isotope Laboratories, Inc., priority 2006, dated 2010).

What was measured:
[1] = cited from earlier work
[2] = Concentration studies: stability of pyruvic acid solutions in water at higher concentrations; format: physicochemical; conditions: each of the concentrations of Table 2; light for 6-weeks; about 22° C. to about 26° C.
Method: Each of these commercial solutions were subjected to light for 6-weeks at temperatures ranging from about 22° C. to about 26° C. At each of the concentrations listed below, it was discovered that the pyruvic acid solutions were stable.

[3] = Shelf storage stability of [1-13C] pyruvic acid in water, 1H and 13C NMR spectra compared; format: physicochemical; conditions: 0.025M in water; for Storage stability, Duration 12 weeks / Storage stability, Duration 17 weeks: NMR; for Shelf stability (NMR spectra unchanged): each of the samples, all conditions of Table 1
Method: Samples of isotopically labeled [1-^13C] pyruvic acid, having Formula VI and synthesized as discussed immediately below, were subjected to various conditions as depicted in Table 1, in order to establish the compound's shelf storage stability.
The resulting [1-^13C] pyruvic acid was tested as follows in Table 1:
^1H and ^13C NMR spectra of the distilled [1-^13C] pyruvic acid in water (0.025M) were acquired at the onset of the study and prior to exposing the samples to the various conditions specified in Table 1. ^1H and ^13C NMR spectra were again acquired for each of the samples after being exposed to the aforementioned conditions on a weekly basis for 12-weeks. The spectra acquired after exposure were compared visually and appeared to remain unchanged as compared with the spectra acquired prior to exposure, i.e. the spectra were as expected for [1-^13C] pyruvic acid in water. As such, it was concluded that each of the samples were shelf stable. Similarly, ^1H and ^13C NMR spectra acquired after 17-weeks of exposure remained unchanged as compared with the spectra acquired prior to exposure.

[4] = Sample 3, Room temperature (about 22° C. to about 26° C.), Dark
[5] = Sample 4, Room temperature (about 22° C. to about 26° C.), Light

Row | Stability of solutions in water [2] | Storage stability, Duration 12 weeks ([3]; Sample 1, −10° C., Dark) | Storage stability, Duration 17 weeks ([3]; Sample 1, −10° C., Dark) | Storage stability, Duration 12 weeks ([3]; Sample 2, 4° C., Dark) | Storage stability, Duration 17 weeks ([3]; Sample 2, 4° C., Dark) | Storage stability, Duration 12 weeks [3, 4] | Storage stability, Duration 17 weeks [3, 4] | Storage stability, Duration 12 weeks [3, 5] | Storage stability, Duration 17 weeks [3, 5] | Shelf stability (NMR spectra unchanged) ([3]; after 17-weeks) | Shelf stability (NMR spectra unchanged) ([3]; weekly for 12-weeks) | SMILES | Solubility in water [1]
1 | stable | – | – | – | – | – | – | – | – | – | – | CC(=O)C(=O)O [Pyruvic acid, 2-oxopropanoic acid, reference compound] | soluble
2 | – | Stable | Stable | Stable | Stable | Stable | Stable | Stable | Stable | shelf stable | shelf stable | CC(=O)[13C](=O)O [[1-^13C] pyruvic acid] | –
